Experimental data reported in publication PMC12693327, “SERAAK2 as a Serotonin Receptor Ligand: Structural and Pharmacological In Vitro and In Vivo Evaluation” (Molecules, 2025).
Entries after “also recorded” stand apart in the source; their conditions may differ.

Tested on: mice
Experiment: Motor coordination, rotarod test
Type: in vivo
Conditions: for Motor coordination (rotarod, chimney): rotarod and chimney
Procedure: The investigated compound (SER2AAK2) was bought from Enamine (purity over 95%) and in all tests was administered intraperitoneally (i.p.), spread in a drop of Tween 80, and diluted with an aqueous solution of 0.5% methylcellulose (tylose) and injected 60 min before the tests in a volume of 10 mL/kg. Control groups received tylose injections of the same volume and via the same route of administration.
The effects of the SER2AAK2 compound were also measured in the rotarod and chimney tests. In the rotarod test, mice were evaluated for their ability to maintain balance on a constantly rotating rod (18 rpm) for 1 min. The chimney test involved placing a mouse in a horizontal polymer tube (3 cm diameter, 25 cm length). Once the mouse reached the far end, the tube was positioned vertically, requiring the animal to climb backwards to exit. Right motor coordination was defined as exiting the chimney within 60 s. Prior to testing, mice underwent a 3-day training. Only those animals that were able to stay on the rotating rod or leave the chimney within the required time were included in the study.

Structure (SMILES): OC(CNCCc1c[nH]c2ccccc12)COc1ccc(Oc2ccccc2)cc1 (stereo not shown) [SERAAK2]
- time held on rotating rod (mice, 7.5 mg/kg i.p., 60 min before test, test length 1 min): about 60 s
- Motor coordination (rotarod, chimney) (mice, 7.5 mg/kg): inactive; also recorded: no effect
- Motor coordination (rotarod, chimney) (mice, 15–60 mg/kg): impairment
- motor coordination in the rotarod test (mice, 60, 30 and 15 mg/kg i.p., 60 min before test): significant disturbances in motor coordination
